In patent publication US20190376039A1, “CELLS WITH IMPROVED INWARD RECTIFIER CURRENT” (priority 2018, published 2019):

Assays:
[1] = test system: ES-Kir2.1 and iPS-Kir2.1 cell lines; test: Initiation of cardiomyocyte differentiation (Day 0 medium); type: cell-based, human; conditions: 12 μM CHIR99021 in RPMI/B27-insulin
Description: The ES-Kir2.1 and iPS-Kir2.1 cell lines were cultured in feeder-free media and prepared for differentiation as previously described with modifications (see, e.g., Lian et al. (2012) “Robust cardiomyocyte differentiation from human pluripotent stem cells via temporal modulation of canonical Wnt signaling” Proc Natl Acad Sci USA 109: E1848-57; Lian et al. (2013) “Directed cardiomyocyte differentiation from human pluripotent stem cells by modulating Wnt/6-catenin signaling under fully defined conditions” Nature Protocols 8: 162-75, each of which is incorporated herein by reference in its entirety). In particular, five days prior to differentiation (“Differentiation Day −5”), cells were harvested and seeded. Media was removed from the stem cell cultures and the cells were and washed with 1 mL DPBS per well. Next, 1 mL of Versene was added to each well and the cells were incubated at 37° C. for 5 minutes. Cells were transferred to a 50-ml tube, an equal volume of medium was added, and the cells were resuspended by gentle pipetting to singularize the cells. Cells were counted, pelleted, and resuspended in culture medium (e.g., mTeSR1, Stem Flex, etc.) to provide cells at a concentration that is pipetted into 6-well plates at approximately 2 million cells per 6-well plate. […]

[2] = test system: IK1-induced ventricular-like SC-CMs; test: Action potentials under current clamp in paced IK1-induced SC-CMs (di-LQTS model); conditions: for slope of linear regression, EAD take-off potential vs. peak EAD voltage: 100 nM E4031; for APD10 / APD50 / APD70 / APD90 / RMP: E4031 20 nM, mean SE
Description: SC-CMs were singularized and plated before cellular electrophysiology experiments on 12-mm poly-d-lysine/laminin or SyntheMax pre-coated coverslips. IK1 was induced by treating singularized cells with doxycycline (2 μM) (Thermo Fisher Scientific) for 48-72 hours prior to cellular electrophysiology analysis. Borosilicate glass pipettes (3-4 MΩ) were used (Model P-97; Sutter Instruments, Novato, Calif.). Whole cell capacitance was calculated by using the time domain technique (20).
AP were measured under current clamp at 32° C. using an Axopatch 200B amplifier and pCLAMP 10 (Molecular Devices, Sunnyvale, Calif.). […] The pipette solution comprised 150 mM K-gluconate, 5 mM EGTA, 10 mM HEPES, and 5 mM MgATP (pH 7.2, KOH). Myocytes were paced at 0.5, 1, 2, and 3 Hz with a depolarizing pulse from a programmable digital stimulator (D55000; WPI, Sarasota, Fla.). AP properties including AP amplitude; resting membrane potential; AP duration at 10% (APD10), 50% (APD50), 70% (APD70), and 90% (APD90) of repolarization; and maximum upstroke velocity (dV/dtmax) were measured (pCLAMP 10; Matlab 6.0, Natick, Mass.). […] Myocytes were paced at 0.5 and 1 Hz. […] AP properties identified above were re-measured.

[3] = 20 nM E4031, 0.5 Hz pacing, p<0.01
[4] = 0.5 Hz pacing, E4031 20 nM and 100 nM, ATX-II 30 nM
[5] = drug vs baseline, E4031, ATX-II 30 nM

## Cc1c[nH]c(-c2cnc(NCCNc3ccc(C#N)cn3)nc2-c2ccc(Cl)cc2Cl)n1 [CHIR99021]
[1]
  cell killing at initiation of differentiation: kills all or most of the cells

## Cc1cccc(CCN2CCC(C(=O)c3ccc(NS(C)(=O)=O)cc3)CC2)n1 [E4031]
[2]; 20 nM E4031, 0.5 Hz pacing
  effect on APD10 compared with control: No significant effect
  effect on APD50 compared with control: No significant effect
[2]; [3]
  effect on APD70 compared with control: significantly prolongs
  effect on APD90 compared with control: significantly prolongs
[2]; FIG. 4C
  slope of linear regression, EAD take-off potential vs. peak EAD voltage: −2.6±0.1
[2]; FIG. 4D, second independent experiment
  slope of linear regression, EAD take-off potential vs. peak EAD voltage: −1.68±0.09
[2]; [4]
  AP prolongation (APD) compared to control: dose-dependent AP prolongation
[2]; 0.5 Hz pacing, ATX-II 30 nM
  APD10: 131.1 ± 53.4 ms
  APD50: 633.8 ± 153.2 ms
  APD70: 767.5 ± 164.8 ms
  APD90: 802.4 ± 172.0 ms
  RMP: −70.6 ± 4.11 mV
[2]; [5]
  effect on RMP: remains normally polarized and stable

## ATX-II: late sodium current agonist (Alamone Labs); late INa enhancing drug (delayed channel inactivation)
[2]; [4]
  AP prolongation (APD) compared to control: markedly increased
  induction of early afterdepolarizations (EADs): did not occur
[2]; 0.5 Hz pacing, ATX-II 30 nM
  APD10: 45.2 ± 25.0 ms
  APD50: 869.4 ± 111.7 ms
  APD70: 1025.6 ± 107.4 ms
  APD90: 1056.9 ± 106.5 ms
  RMP: −76.2 ± 3.65 mV
[2]; [5]
  effect on RMP: no difference
  effect on dV/dt max: no difference
